Test results: PubChem BioAssay (NCI)
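96-well plates; 48 h exposure; 5 concentrations. Endpoints by linear interpolation between flanking doses. Not reached: highest tested concentration assigned. TGI: concentration producing complete growth inhibition.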

What was measured:
Assay in all cases: inhibition of tumour cell growth, NCI panel, 48 h
[1] = test system: NCI-H460 lung
[2] = test system: HCC-2998 colon
[3] = test system: HOP-92 NSCLC
[4] = test system: SNB-78 CNS
[5] = test system: EKVX NSCLC
[6] = test system: DMS 114 small cell lung
[7] = test system: DLD-1 colon
[8] = test system: HOP-18 NSCLC
[9] = test system: MDA-MB-231 breast
[10] = test system: BT-549 breast
[11] = test system: T-47D breast

Structure (SMILES)	TGI [1]	TGI [2]	TGI [3]	TGI [4]	TGI [5]	TGI [6]	TGI [7]	TGI [8]	TGI [9]	TGI [10]	TGI [11]
C[N+](C)(C)CC(=O)N/N=C(\C(=O)NC1=C(Cl)C(=O)c2ccccc2C1=O)C(C#N)c1csc(-c2ccc([N+](=O)[O-])cc2)n1 (configuration not stated)	> 100 µM	> 100 µM	> 100 µM	> 100 µM	> 100 µM	> 100 µM	> 100 µM	> 100 µM			
CN(C)c1nc(=Nc2cccc(Cl)c2)ss1	46.3 µM	47.9 µM	49.4 µM	34 µM	56.5 µM	25.8 µM	24.8 µM	> 100 µM			
CCOC(=N)/C(=C1\OC(N)=C(c2ccc(Cl)cc2)C1=O)c1ccc(Cl)cc1	46 µM	32.7 µM	34 µM	> 100 µM	32.7 µM	40.6 µM	28.8 µM	72.6 µM			
Nc1ccn(C2OC(COC(=O)C34CC5CC(CC(C5)C3)C4)C(O)C2O)c(=O)n1 (configuration not stated)	> 40.8 µM	> 100 µM	> 100 µM	> 100 µM	> 100 µM	> 100 µM	> 100 µM	> 100 µM	> 100 µM	> 100 µM	> 100 µM
COC(=O)C1[C@H](c2cc(OC)c(OC)c(OC)c2)OC(=O)C1(C(=O)OC)C(=O)c1ccc2c(c1)OCO2 (some centres not stated)	> 100 µM	> 100 µM	> 100 µM	> 100 µM	> 100 µM	> 100 µM	> 100 µM				
CC(=O)OC1CC2C(C)(C)C(=O)C=C[C@]2(C)C2CCC3(C)C(=CC(=O)C3c3ccoc3)[C@]12C (some centres not stated)	34.1 µM	26 µM	45.6 µM	> 100 µM	37.7 µM	27.6 µM	31 µM	33.8 µM			
Cc1cc(N(CCC#N)S(C)(=O)=O)ccc1C=Nc1ccc(C(=O)NN2C(=O)/C(=C/c3ccc(N(CCC#N)CCC#N)cc3C)N=C2c2cc([N+](=O)[O-])ccc2Cl)cc1	> 100 µM	> 100 µM	> 100 µM	> 100 µM	> 100 µM	> 100 µM	> 100 µM	> 100 µM			
O=[N+]([O-])CCc1cccc([N+](=O)[O-])c1	> 100 µM	> 100 µM	> 100 µM	> 100 µM	> 100 µM	> 100 µM	> 100 µM	> 100 µM			
COC(=O)C(Cc1nc2ccccc2[nH]c1=O)C(=O)C(=O)Nc1ccc([N+](=O)[O-])cc1[N+](=O)[O-] (configuration not stated)	49.2 µM	33.2 µM		> 100 µM	51.2 µM	35 µM	42 µM	32.1 µM			
CCOC(=N)CC(=O)c1ccccc1		> 100 µM	> 100 µM	> 100 µM	> 100 µM	> 100 µM	> 100 µM	> 100 µM			
CCc1cc(CCC(=O)Nc2c(C)cccc2C)[nH]n1	> 100 µM	> 100 µM	> 100 µM	> 100 µM	> 100 µM		> 100 µM	> 100 µM			
CC/C(CC(=O)CCC(=O)Nc1ccccc1[N+](=O)[O-])=N/NC(=O)C[n+]1ccccc1	> 100 µM	> 100 µM	> 100 µM	> 100 µM	> 100 µM			> 100 µM			
Cc1cc(Cl)ccc1NC(=O)C(=O)C(C(=O)c1ccc2ccccc2c1)C1OC(=O)c2ccccc21 (configuration not stated)	60.8 µM	22.2 µM	34.5 µM	49.9 µM	75.9 µM	23.7 µM	30.4 µM	18.1 µM			
COC(C(=O)NCCCCNC(=O)C(OC)c1ccccc1)c1ccccc1 (configuration not stated)	> 100 µM		> 100 µM	> 100 µM	> 100 µM	> 100 µM	> 100 µM	> 100 µM			
O=C(Nc1cccc(O)c1)C(=O)C(C(=O)c1ccc(Cl)c(Cl)c1)C1OC(=O)c2ccccc21 (configuration not stated)	27.5 µM	29.2 µM	53.8 µM	> 100 µM	46.6 µM	33.3 µM		> 100 µM			
CC[N+]1(C)CCC(O)(c2ccc(OC)cc2)C(C(=O)c2ccc(OC)cc2)C1 (configuration not stated)	45 µM	34.8 µM	6.79 µM	41.5 µM	41.6 µM	45.9 µM	8.03 µM	32.6 µM		32.3 µM	33.8 µM
O=C1OC(O)C(Oc2c(Cl)cccc2Cl)=C1Cl (configuration not stated)	29.2 µM	37.9 µM	41.9 µM	94.6 µM	73.2 µM		32.1 µM	42.4 µM			
CC(C)(C)C1CCC2c3c([nH]c4ccccc34)C3C(=O)N(c4ccccc4)C(=O)C3C2C1 (configuration not stated)	12.5 µM	53.5 µM		19 µM	55.3 µM	20.7 µM	> 100 µM	9.73 µM			
CSc1n[n+]2c(s1)SCCC2	> 100 µM	> 100 µM	> 100 µM	> 100 µM		> 100 µM	> 100 µM	> 100 µM			
O=[N+]([O-])C1Cc2ccccc2OC1c1ccccc1 (configuration not stated)		> 100 µM	> 100 µM	51.5 µM	> 100 µM		> 100 µM	> 100 µM			
O=c1c2cccc3cccc(c4n1CCN=4)c32	> 100 µM		> 100 µM	> 100 µM	> 100 µM	> 100 µM	> 100 µM	> 100 µM			
FC(F)(F)C1(Br)C(c2ccccc2)=C1c1ccccc1	80.1 µM	38.4 µM	32.2 µM	96.6 µM	> 100 µM	31.4 µM	43 µM	31.1 µM			
